# Reference: patent US12685312B2, “Sulfonamide apyrase inhibitors” (Texas Crop Science, Inc., priority 2022, dated 2026)
# Test system: apyrase
# Assay: Screen for apyrase inhibitors (Method 1, in vitro phosphate-release absorbance assay)
# Format: biochemical
# Details: inhibitor conc at 1 mM stock, 1 hr room temperature, absorbance 630 nm; rounded average of two assay results
# Protocol: Apyrase inhibitors useful as enhancers of pesticidal activity are assessed using an in vitro assay. The method of Windsor, Bio Techniques 33:1024-1030 (November 2002) was used as follows Screen for Apyrase Inhibitors- 96 well plates were used for the assay: (Greiner bio-one: REF-655901-96 well, PS, F-bottom, Clear, Non-binding) Buffers: • Reaction Buffer: 60 mM Hepes; 3 mM MgCl2, 3 mM CaCl2 and 3 mM ATP (pH 6.5) • Development Buffer A: 2% aqueous ammonium molybdate • Development Buffer B: 11% ascorbic acid in 37.5% TCA in water • Stop buffer C: 2% trisodium citrate in 2% acetic acid solution in water • Add 100 μl of reaction buffer to each well. • Add 10 μl of DMSO (control) or inhibitor/compound or compounds such as […] or orthovanadate to each well. […] A blank cell indicates either <10% observed inhibition or a large difference between repetitions. In certain examples, the lack of observed inhibition is due to a lack of solubility of the compound under assay conditions, rather than a lack of apyrase inhibitory activity.
row,SMILES,% Inhibition of Apyrase
1,"O=C(Nc1ccccc1NS(=O)(=O)c1cccs1)c1ccc(C(F)(F)F)cc1 [I-836, N-(2-(thiophene-2-sulfonamido)phenyl)-4-(trifluoromethyl)benzamide]",49%
2,"Cc1cc(F)ccc1S(=O)(=O)Nc1ccc(C(=O)Nc2cccc(C#N)c2)cc1 [I-959, N-(3-cyanophenyl)-4-((4-fluoro-2-methylphenyl)sulfonamido)benzamide]",17%
3,"Cc1ccccc1NC(=O)c1cccc(S(=O)(=O)N2c3ccccc3CC2C)c1 (stereo not shown) [I-466, 3-((2-methylindolin-1-yl)sulfonyl)-N-(o-tolyl)benzamide]",59%
4,"O=C(Nc1cccc([N+](=O)[O-])c1)c1ccc(Br)c(S(=O)(=O)Nc2cccc(F)c2)c1 [I-23, 4-bromo-3-(N-(3-fluorophenyl)sulfamoyl)-N-(3-nitrophenyl)benzamide]",30%
5,"O=C(Nc1ccc2c(c1)OCCO2)c1ccc(C(=O)Nc2ccc3c(c2)OCCO3)cc1 [I-875, N1,N4-bis(2,3-dihydrobenzo[b][1,4]dioxin-6-yl)terephthalamide]",55%
6,"O=C(Nc1ccc(S(=O)(=O)Nc2cccc(C(F)(F)F)c2)cc1)c1ccc(Cl)c([N+](=O)[O-])c1 [I-979, 4-chloro-3-nitro-N-(4-(N-(3-(trifluoromethyl)phenyl)sulfamoyl)phenyl) benzamide]",58%
7,"O=C(Nc1ccc(S(=O)(=O)Nc2cccc(C(F)(F)F)c2)cc1)c1ccccc1 [I-1000, N-(4-(N-(3-(trifluoromethyl)phenyl)sulfamoyl)phenyl) benzamide]",28%
8,"O=C(c1ccc(S(=O)(=O)Nc2ccccc2)cc1)N1CCCc2ccccc21 [I-397, N-phenyl-4-(1,2,3,4-tetrahydroquinoline-1-carbonyl)benzenesulfonamide]",45%
9,"Cc1ccc(S(=O)(=O)Nc2ccc(F)cc2)cc1C(=O)N1c2ccccc2CC1C (stereo not shown) [I-544, N-(4-fluorophenyl)-4-methyl-3-(2-methylindoline-1-carbonyl)benzenesulfonamide]",54%
10,"O=C(Nc1ccccc1NS(=O)(=O)c1cccs1)c1ccc(Cl)cc1 [I-832, 4-chloro-N-(2-(thiophene-2-sulfonamido)phenyl)benzamide]",58%
11,"O=C(c1cccc(S(=O)(=O)Nc2ccc(Br)cc2)c1)N1CCc2ccccc21 [I-13, N-(4-bromophenyl)-3-(indoline-1-carbonyl)benzenesulfonamide]",59%
12,"O=C(Nc1cccc2cccnc12)c1cccc(S(=O)(=O)N2CCc3ccccc32)c1 [I-444, 3-(indolin-1-ylsulfonyl)-N-(quinolin-8-yl)benzamide]",61%
13,"COc1ccc([N+](=O)[O-])cc1S(=O)(=O)Nc1ccccc1NC(=O)c1ccc(C(C)(C)C)cc1 [I-831, 4-(tert-butyl)-N-(2-((2-methoxy-5-nitrophenyl)sulfonamido)phenyl)benzamide]",59%
14,"O=C(Nc1cccc(S(=O)(=O)Nc2cccc(C(F)(F)F)c2)c1)c1cc2c(s1)CCCC2 [I-724, N-(3-(N-(3-(trifluoromethyl)phenyl)sulfamoyl)phenyl)-4,5,6,7-tetrahydrobenzo[b]thiophene-2-carboxamide]",57%
15,"O=C(Nc1ccc2c(c1)OCCO2)c1ccc(Cl)c(S(=O)(=O)N2CCc3ccccc32)c1 [I-524, 4-chloro-N-(2,3-dihydrobenzo[b][1,4]dioxin-6-yl)-3-(indolin-1-ylsulfonyl)benzamide]",55%
16,"O=C(Nc1cccc(C(F)(F)F)c1)c1cccc(NS(=O)(=O)c2ccc(Cl)s2)c1 [I-634, 3-((5-chlorothiophene)-2-sulfonamido)-N-(3-(trifluoromethyl)phenyl)benzamide]",59%
17,"O=C(Nc1cc(Cl)ccc1NS(=O)(=O)c1ccccc1F)c1ccccc1 [I-845, N-(5-chloro-2-((2-fluorophenyl)sulfonamido)phenyl)benzamide]",1%
18,"CC1Cc2ccccc2N1S(=O)(=O)c1cccc(C(=O)Nc2cccc(Oc3ccccc3)c2)c1 (stereo not shown) [I-487, 3-((2-methylindolin-1-yl)sulfonyl)-N-(3-phenoxyphenyl)benzamide]",58%
19,"O=C(Nc1cccc(C(F)(F)F)c1)c1cccc(NS(=O)(=O)c2ccc(Br)c(C(=O)O)c2)c1 [I-322, 2-bromo-5-(N-(3-((3-(trifluoromethyl)phenyl)carbamoyl)phenyl)sulfamoyl)benzoic acid]",47%
20,"O=C(Nc1nccs1)c1cccc(NS(=O)(=O)c2ccc3c(c2)OCCCO3)c1 [I-644, 3-((3,4-dihydro-2H-benzo[b][1,4]dioxepine)-7-sulfonamido)-N-(thiazol-2-yl)benzamide]",54%
21,"CC1Cc2ccccc2N1S(=O)(=O)c1cccc(C(=O)N2CCCc3cc(F)c(F)cc32)c1 (stereo not shown) [I-571, (6,7-difluoro-3,4-dihydroquinolin-1(2H)-yl)(3-((2-methylindolin-1-yl)sulfonyl)phenyl)methanone]",51%
22,"O=C(c1ccc(Cl)c(S(=O)(=O)N2CCc3ccccc32)c1)N1CCc2ccccc21 [I-448, (4-chloro-3-(indolin-1-ylsulfonyl)phenyl)(indolin-1-yl)methanone]",61%
23,"CC1Cc2ccccc2N1S(=O)(=O)c1cccc(C(=O)Nc2ccccc2C(C)(C)C)c1 (stereo not shown) [I-534, N-(2-(tert-butyl)phenyl)-3-((2-methylindolin-1-yl)sulfonyl)benzamide]",54%
24,"O=C(Nc1ccc(S(=O)(=O)Nc2ccc(Cl)cc2)cc1)c1cccc(C(F)(F)F)c1 [I-976, N-(4-(N-(4-chlorophenyl)sulfamoyl)phenyl)-3-(trifluoromethyl)benzamide]",60%
25,"Cc1ccc(NC(=O)c2cccc(S(=O)(=O)N3CCc4ccccc43)c2)c(OCC2CCCO2)c1 (stereo not shown) [I-552, 3-(indolin-1-ylsulfonyl)-N-(4-methyl-2-((tetrahydrofuran-2-yl)methoxy)phenyl)benzamide]",53%

# Results, then the compound that gave them:
row,% Inhibition of Apyrase,SMILES
1,20%,"N#Cc1cccc(NC(=O)c2ccc(NS(=O)(=O)c3ccc(F)cc3)cc2)c1 [I-957, N-(3-cyanophenyl)-4-((4-fluorophenyl)sulfonamido)benzamide]"
2,61%,"COc1ccc(NC(=O)c2cccc(S(=O)(=O)N3c4ccccc4CC3C)c2)cc1OC (stereo not shown) [I-449, N-(3,4-dimethoxyphenyl)-3-((2-methylindolin-1-yl)sulfonyl)benzamide]"
3,18%,"Cc1cccc(NS(=O)(=O)c2ccc(C(=O)Nc3cccc(C(=O)N(C)C)c3)cc2)c1C [I-894, 3-(4-(N-(2,3-dimethylphenyl)sulfamoyl)benzamido)-N,N-dimethylbenzamide]"
4,42%,"Cc1cc(C(=O)Nc2cccc(S(=O)(=O)N(C)c3ccccc3)c2)on1 [I-748, 3-methyl-N-(3-(N-methyl-N-phenylsulfamoyl)phenyl)isoxazole-5-carboxamide]"
5,30%,"N#Cc1cccc(NC(=O)c2ccc(S(=O)(=O)Nc3ccccc3F)cc2)c1 [I-406, N-(3-cyanophenyl)-4-(N-(2-fluorophenyl)sulfamoyl)benzamide]"
6,61%,"Cc1cccc(C(=O)Nc2cccc(S(=O)(=O)Nc3cccc(C(F)(F)F)c3)c2)n1 [I-708, 6-methyl-N-(3-(N-(3-(trifluoromethyl)phenyl)sulfamoyl)phenyl) picolinamide]"
7,66%,"Cc1ccc(NS(=O)(=O)c2ccc(C(=O)Nc3cccc(C#N)c3)cc2)cc1C [I-384, N-(3-cyanophenyl)-4-(N-(3,4-dimethylphenyl)sulfamoyl)benzamide]"
8,66%,"CCOC(=O)c1sc(NC(=O)c2cccc(S(=O)(=O)Nc3ccccc3F)c2)cc1C [I-432, ethyl 5-(3-(N-(2-fluorophenyl)sulfamoyl)benzamido)-3-methylthiophene-2-carboxylate]"
9,52%,"Cc1ccc(Br)c(NS(=O)(=O)c2cccc(NC(=O)c3ccc(C)nc3)c2)c1 [I-738, N-(3-(N-(2-bromo-5-methylphenyl)sulfamoyl)phenyl)-6-methylnicotinamide]"
10,14%,"O=C(Nc1ccccc1OC(F)F)c1ccc(NS(=O)(=O)c2ccccc2)cc1 [I-960, N-(2-(difluoromethoxy)phenyl)-4-(phenylsulfonamido)benzamide]"
11,46%,"COc1ccccc1C(=O)Nc1ccc(S(=O)(=O)Nc2cccc(Cl)c2)cc1 [I-995, N-(4-(N-(3-chlorophenyl)sulfamoyl)phenyl)-2-methoxybenzamide]"
12,57%,"COc1ccccc1NS(=O)(=O)c1ccc(NC(=O)c2ccc3c(c2)OCCO3)cc1 [I-981, N-(4-(N-(2-methoxyphenyl)sulfamoyl)phenyl)-2,3-dihydrobenzo[b][1,4]dioxine-6-carboxamide]"
13,41%,"O=C(Nc1ccc(F)cc1)c1ccc(S(=O)(=O)Nc2ccccc2Cl)cc1 [I-400, 4-(N-(2-chlorophenyl)sulfamoyl)-N-(4-fluorophenyl)benzamide]"
14,14%,"COc1ccccc1NS(=O)(=O)c1cccc(NC(=O)c2cncc(Br)c2)c1 [I-766, 5-bromo-N-(3-(N-(2-methoxyphenyl)sulfamoyl)phenyl) nicotinamide]"
15,65%,"O=C(Nc1ccccc1NS(=O)(=O)c1cccs1)c1cccc(Cl)c1 [I-828, 3-chloro-N-(2-(thiophene-2-sulfonamido)phenyl)benzamide]"
